# Measured values: patent US20240174618A1, “SUBSTITUTED (2-HETEROARYLOXYPHENYL)SULFONATES, SALTS THEREOF AND THEIR USE AS HERBICIDAL AGENTS” (Bayer Aktiengesellschaft, priority 2021, published 2024)
# What was measured:
# Assay type in all cases: in vivo
# Viola tricolor (VIOTR) = experiment: C. Herbicidal pre-emergence efficacy, VIOTR
# Outline: (§1)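 Pre-emergence test: formulated compounds sprayed as aqueous suspension or emulsion with 0.5% additive at 600 l/ha onto soil covering sown seeds, at rates corresponding to 320 g/ha or less. After about 3 weeks in greenhouse, efficacy scored visually as percent versus untreated controls (100% = plants dead).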
# [1] = tested on: Abutilon theophrasti (ABUTH); experiment: C. Herbicidal pre-emergence efficacy, ABUTH; settings: scored after about 3 weeks
# Outline: as §1
# [2] = tested on: Amaranthus retroflexus (AMARE); experiment: B. Herbicidal post-emergence efficacy, AMARE
# Outline: (§2)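 Readout: visual % kill vs untreated, ~3 wk post-spray. Plants in sandy loam pots, treated at one-leaf stage; spray = WP/EC in water + 0.5% additive, 600 L/ha, dose ≤1280 g/ha.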
# [3] = tested on: Alopecurus myosuroides (ALOMY); experiment: A. Herbicidal pre-emergence efficacy, ALOMY; settings: scored visually after about 3 weeks vs untreated controls
# Outline: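 Applied before emergence onto covering soil at rates of 1280 g/ha or less, using 600 L/ha spray water with 0.5% additive. Scoring: visual % efficacy after ~3 weeks, greenhouse.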
# Veronica persica (VERPE) = experiment: B. Herbicidal post-emergence efficacy, VERPE
# Outline: as §2
# Stellaria media (STEME) = experiment: B. Herbicidal post-emergence efficacy, STEME
# Outline: as §2
# [4] = tested on: Echinochloa crus-galli (ECHCG); experiment: B. Herbicidal post-emergence efficacy, ECHCG; settings: rated visually after about 3 weeks
# Outline: as §2
Compound,Pre-emergence efficacy against VIOTR in % (Viola tricolor (VIOTR); application rate 80 g/ha),Pre-emergence efficacy against VIOTR in % (Viola tricolor (VIOTR); application rate 320 g/ha),Pre-emergence efficacy against ABUTH ([1]; 80 g/ha),Pre-emergence efficacy against ABUTH ([1]; 320 g/ha),Post-emergence efficacy against AMARE ([2]; 80 g/ha),Post-emergence efficacy against AMARE ([2]; 320 g/ha),Post-emergence efficacy against AMARE ([2]; 1280 g/ha),Pre-emergence efficacy against ALOMY ([3]; 320 g/ha),Pre-emergence efficacy against ALOMY ([3]; 1280 g/ha),Post-emergence efficacy against VERPE (Veronica persica (VERPE); 80 g/ha),Post-emergence efficacy against VERPE (Veronica persica (VERPE); 320 g/ha),Post-emergence efficacy against VERPE (Veronica persica (VERPE); 1280 g/ha),Post-emergence efficacy against STEME (Stellaria media (STEME); 80 g/ha),Post-emergence efficacy against STEME (Stellaria media (STEME); 320 g/ha),Post-emergence efficacy against STEME (Stellaria media (STEME); 1280 g/ha),Post-emergence efficacy against ECHCG in % ([4]; 80 g/ha),Post-emergence efficacy against ECHCG in % ([4]; 320 g/ha),Post-emergence efficacy against ECHCG in % ([4]; 1280 g/ha)
O=S(=O)(CCCCl)Oc1ccccc1Oc1ncc(Cl)cn1 [Example I-2],100%,100%,100%,100%,100%,100%,100%,100%,100%,100%,100%,100%,90%,100%,100%,90%,100%,100%
CCCS(=O)(=O)Oc1ccccc1Oc1ncc(Cl)cn1 [Example I-3],90%,100%,100%,100%,90%,100%,100%,90%,100%,90%,100%,100%,–,90%,100%,–,–,90%
O=S(=O)(CCCCl)Oc1ccccc1Oc1ncc(F)cn1 [Example I-5],100%,100%,–,100%,100%,100%,100%,–,90%,100%,100%,100%,100%,100%,100%,90%,100%,100%
O=S(=O)(CCCC(F)(F)F)Oc1ccccc1Oc1ncc(Cl)cn1 [Example I-10],90%,100%,100%,100%,90%,90%,100%,90%,90%,–,–,–,90%,90%,100%,100%,100%,100%
O=S(=O)(CCC(F)(F)F)Oc1c(Br)cccc1Oc1ncc(Cl)cn1 [Example I-31],–,–,–,–,100%,100%,100%,–,90%,90%,90%,100%,100%,100%,100%,–,–,100%
O=S(=O)(CCC(F)(F)F)Oc1c(Cl)cccc1Oc1ncc(Cl)cn1 [Example I-38],100%,100%,100%,100%,–,–,90%,–,100%,90%,90%,90%,90%,90%,90%,–,–,–
O=S(=O)(CCCC(F)(F)F)Oc1c(Cl)cccc1Oc1ncc(Cl)cn1 [Example I-39],100%,100%,100%,100%,–,90%,90%,90%,100%,90%,90%,90%,90%,90%,90%,–,–,–
O=S(=O)(CCC(F)(F)F)Oc1c(F)cccc1Oc1ncc(Br)cn1 [Example I-40],100%,100%,100%,100%,–,90%,90%,90%,100%,90%,90%,90%,–,–,–,–,–,–
O=S(=O)(CCCC(F)(F)F)Oc1c(F)cccc1Oc1ncc(Br)cn1 [Example I-41],100%,100%,100%,100%,–,90%,90%,–,100%,90%,90%,90%,90%,90%,90%,–,–,–
O=S(=O)(CCCC(F)(F)F)Oc1c(F)cccc1Oc1ncc(F)cn1 [Example I-42],100%,100%,100%,100%,–,–,–,100%,100%,–,–,–,100%,100%,100%,100%,100%,100%
O=S(=O)(CCC(F)(F)F)Oc1c(Br)cccc1Oc1ncc(F)cn1 [Example I-43],90%,100%,80%,100%,–,–,–,–,90%,–,–,–,–,100%,100%,–,90%,90%
Cc1cccc(Oc2ncc(F)cn2)c1OS(=O)(=O)CCC(F)(F)F [Example I-45],100%,100%,100%,100%,–,–,–,90%,100%,–,–,–,100%,100%,100%,–,100%,100%
Cc1cccc(Oc2ncc(F)cn2)c1OS(=O)(=O)CCCC(F)(F)F [Example I-46],100%,100%,100%,100%,–,–,–,–,100%,–,–,–,90%,100%,100%,90%,90%,100%
O=S(=O)(CCC(F)(F)F)Oc1c(F)cccc1Oc1ncc(F)cn1 [Example I-47],100%,100%,100%,100%,–,–,–,100%,100%,–,–,–,100%,100%,100%,90%,100%,100%
